This passage reports MIC, Activity and IC50 results from ChEMBL document CHEMBL1144499, “Complanadines C and D, new dimeric alkaloids from Lycopodium complanatum” (Bioorg Med Chem, 2007).

Assay [1] relates to Cryptococcus neoformans. Briefly: Antimicrobial activity against Cryptococcus neoformans. Type of assay: functional.
Assay [2] concerns 1321-N1. Briefly: Enhancement of NGF mRNA expression in human 1321N1 cells. Type of assay: functional, cell-based.
Assay [3] deals with L1210. Briefly: Cytotoxicity against mouse L1210 cells. Type of assay: cell-based.
For assay [4], the system named is Aspergillus niger. Briefly: Antimicrobial activity against Aspergillus niger. It is filed as functional.

≈ marks a conversion by molar mass, not a printed value. Calls of active or inactive are those of the source. The calls are words filed in the database; no cut-off is given here.

For the compound `C[C@@H]1C[C@H]2CC3=C(CC[C@H](c4cnc5c(c4)[C@@]46C[C@H](C)C[C@@H](C5)[C@H]4CCCN6)N3)[C@]3(C1)NCCC[C@H]23` [COMPLANADINE D], the results for the MIC in assay [1] and in assay [4] were 0.26 mg/L (≈ 0.534 µM) and 4.16 mg/L (≈ 8.55 µM), respectively. Also, the outcome in assay [2] was Active. Further, in assay [3], the midpoint of inhibition, the IC50, lay at 7 mg/L (≈ 14.4 µM).
